Measured values: patent US11180459B2, “Bacterial efflux pump inhibitors” (RUTGERS, THE STATE UNIVERSITY OF NEW JERSEY, priority 2017, dated 2021)
Structures can show the parent of a compound that is named as a salt. Marks after values point to notes of the source that are not given here.

Legend:
[1] = tested on: Escherichia coli ATCC 25922; assay: Standard EPI assay: clarithromycin MIC with EPI; assay type: cell-based; settings: clarithromycin as antibiotic, E. coli ATCC 25922
Method: (§1) MIC assays were conducted in accordance with Clinical and Laboratory Standards Institute (CLSI) guidelines for broth microdilution.
(§2) The EPI assay for the purposes of these studies represents a MIC assay in which the MIC of the antibiotic against the bacteria is tested in the presence of an experimental efflux pump inhibitor (EPI). The highest concentration of the EPI present in the assay typically is ½ of the intrinsic MIC of the compound. If the intrinsic MIC of the EPI is greater than 100 μg/mL, the EPI assay was tested with 50 μg/mL. Using serial dilutions of the EPI, its enhancement of antibiotic activity was then evaluated. The relative EPI activity was decided by comparing the MIC of the antibiotic in the presence of the EPI compound with the intrinsic MIC of the antibiotic alone. For the evaluation of the efficacy of an EPI against bacteria that were pre-exposed to an antibiotic, the inoculum of bacteria that used was developed from a bacterial culture isolated as a single colony following exposure at ½ the MIIC of the antibiotic (so as to induce efflux pump expression), was to be used in combination with the EPI.
(§3) In our standard EPI assay, the MIC of the test antibiotic is determined in the absence and presence of sub-inhibitory concentrations of the EPI. Initially, the sub-inhibitory concentration used was ½×MIC of the EPI. […] The MIC of levofloxacin against P. aeruginosa ATCC 27853 in the absence of EPI is 1 μg/mL. […] Similar methodology was employed to examine the synergy with Escherichia coli ATCC 25922 in the presence of varied concentrations of these EPIs using clarithromycin as the antibiotic.

[2] = tested on: Pseudomonas aeruginosa ATCC 27853; assay: Standard EPI assay: levofloxacin MIC with EPI; assay type: cell-based; settings: P. aeruginosa ATCC 27853; for Enhanced Activity in P. aeruginosa (fold enhancement of antibiotic activity / EPI concentration): levofloxacin as antibiotic
Method: as §1, §2, §3

[3] = tested on: P. aeruginosa [ATCC 27853]; assay: Mouse septicemia model of infection; assay type: in vivo, Swiss Webster female mice; settings: Experiment #521, cefepime 10 mg/ml b.i.d.
Method: A general method for the in vivo assessment of bacterial EPIs is complicated by the fact that that both the antibiotic and the EPI need to be present for synergy to be achieved. A general method was discovered that has proven to be effective in establishing the relative efficacy of bacterial EPIs in a mouse septicemia model. The bacterial EPI is administered initially intravenously to mice with septicemia, followed 5 minutes later by the intravenous administration or oral administration of the antibiotic. A second administration of the EPI is then administered subcutaneously after an additional 5 minutes to act as a booster, followed by the final administration of the antibiotic either intravenously or orally after the second administration of the EPI. […] In a few instances, a second regiment of both EPI and antibiotic as administered on day 1 was required after 24 hours to affect cures.
Determination of the in vivo efficacy of bacterial efflux pump inhibitors (EPIs) can be efficiently determined using a mouse septicemia model of infection. The systemic infection is initiated by a 500 ul intraperitoneal injection of an inoculum containing bacteria (such as P. aeruginosa [ATCC 27853]) at a concentration of approximately 5×10^5 cells in 5% mucin in Swiss Webster female mice. […]

P. aeruginosa ATCC 27853 [4] = assay: Pre-exposure bacterial EPI assay (MIC against bacteria pre-exposed to 1/2 x MIC antibiotic); assay type: cell-based; settings: Pseudomonas aeruginosa, ATCC27853, read-out: MIC of cefepime against P. aeruginosa pre-exposed to cefepime
Source text: The principle underlying this pre-exposure is that exposure of the bacteria to sub-inhibitory concentrations of the test antibiotic will induce expression of efflux pumps, if any, and may represent the scenario in vivo more accurately.

P. aeruginosa ATCC 27853 [5] = assay: Intrinsic MIC assay (broth microdilution); assay type: cell-based; settings: Pseudomonas aeruginosa
Method: as §1
The intrinsic MIC of the experimental EPIs was tested with the method described. The 2-fold serial dilution begins with 100 μg/mL of tested compound in the first column of the 96-well plates.

SMILES	Enhanced Activity in P. aeruginosa (fold enhancement of antibiotic activity / EPI concentration) ([2]; EPI at 12.5 (μg))	Enhanced Activity in E. coli (fold enhancement of antibiotic activity / EPI concentration) ([1]; EPI at 50 (μg))	further results
NC[C@H]1CN[C@H](CNC(=O)c2nc3cc(-c4ccc(F)cc4)ccc3[nH]2)C1 [Example 22, N-(((2S,4S)-4-(aminomethyl)pyrrolidin-2-yl)methyl)-5-(4-fluorophenyl)-1H-benzo[d]imidazole-2-carboxamidedihydrochloride]	32×/12.5	–	Enhanced Activity in E. coli (fold enhancement of antibiotic activity / EPI concentration) ([1]; EPI at 6.25 (μg)): 2×/6.25; % Survival (72 hr) Antibiotic + EPI ([3]; 250 ul + Example 22 2.0 mg/ml b.i.d.): 75%
CO/N=C(\C(=O)N[C@@H]1C(=O)N2C(C(=O)[O-])=C(C[N+]3(C)CCCC3)CS[C@H]12)c1csc(N)n1 [cefepime, reference compound]	–	–	MIC (P. aeruginosa ATCC 27853 [4]): 16 µg/mL; % Survival (72 hr) Antibiotic Only ([3]; 250 ul): 25%*****
NCCC[C@H](N)CNC(=O)c1nc2cc(-c3ccc(F)cc3)cc(C(F)(F)F)c2[nH]1 [Example 3, (S)—N-(2,5-diaminopentyl)-5-(4-fluorophenyl)-7-(trifluoromethyl)-1H-benzo[d]imidazole-2-carboxamide Dihydrochloride]	64×/12.5	–	Enhanced Activity in E. coli (fold enhancement of antibiotic activity / EPI concentration) ([1]; EPI at 6.25 (μg)): 8×/6.25; MIC of levofloxacin in the presence of EPI ([2]; 6.25 μg/mL of Example 3): 0.016 µg/mL; reduction of the MIC of levofloxacin relative to absence of EPI ([2]; 6.25 μg/mL of Example 3): 64 fold; MIC (P. aeruginosa ATCC 27853 [5]; ATCC27853, read-out: intrinsic MIC of the EPI): 25 µg/mL
COc1ccc(-c2ccc3nc(C(=O)NC[C@@H](N)CCN)[nH]c3c2)cc1.Cl.Cl [Example 15, (S)-4-(5-(4-methoxyphenyl)-1H-benzo[d]imidazole-2-carboxamido)butane-1,3-diaminium Dihydrochloride]	2×/12.5	2×/50	–
NCCC[C@H](N)CNC(=O)c1nc2cc(-c3ccc(F)cc3)cc(-c3ccc(F)cc3)c2[nH]1 [Example 2, (S)—N-(2,5-diaminopentyl)-5,7-bis(4-fluorophenyl)-1H-benzo[d]imidazole-2-carboxamide Dihydrochloride]	1×/12.5	–	–
Cl.Cl.NCCC(N)CNC(=O)c1nc2cc(-c3ccc(F)cc3)ccc2[nH]1 (stereo in doubt) [Example 12, (S)-4-(5-(4-fluorophenyl)-1H-benzo[d]imidazole-2-carboxamido) butane-1,3-diaminium Chloride]	4×/12.5	8×/50	–
COc1ccc(-c2ccc3[nH]c(C(=O)NC[C@@H](N)CCCN)nc3c2)cc1 [Example 8, (S)—N-(2,5-diaminopentyl)-5-(4-methoxyphenyl)-1H-benzo[d]imidazole-2-carboxamide Dihydrochloride]	2×/12.5	2×/50	–
NCCC[C@H](N)c1nc2cc(-c3ccc(F)cc3)ccc2[nH]1 [Example 9, (S)-1-(5-(4-fluorophenyl)-1H-benzo[d]imidazol-2-yl)butane-1,4-diamine Dihydrochloride]	–	256×/50	Enhanced Activity in P. aeruginosa (fold enhancement of antibiotic activity / EPI concentration) ([2]; EPI at 25 (μg)): 1×/25
N#Cc1cccc(-c2ccc3[nH]c(C(=O)NC[C@@H](N)CCCN)nc3c2)c1 [Example 7, (S)-5-(3-cyanophenyl)-N-(2,5-diaminopentyl)-1H-benzo[d]imidazole-2-carboxamide Dihydrochloride]	4×/12.5	–	–
Cl.Cl.N=C(N)NCCC[C@H](N)CNC(=O)c1nc2cc(-c3ccc(F)cc3)ccc2[nH]1 [Example 14, (S)-5-((amino(iminio)methyl)amino)-1-(5-(4-fluorophenyl)-1H-benzo[d]imidazole-2-carboxamido) pentan-2-aminium Chloride]	4×/12.5	2×/50	–
NC[C@@H]1CN[C@H](CNC(=O)c2nc3cc(-c4ccc(F)cc4)ccc3[nH]2)C1 [Example 21, N-(((2S,4R)-4-(aminomethyl)pyrrolidin-2-yl)methyl)-5-(4-fluorophenyl)-1H-benzo[d]imidazole-2-carboxamide Dihydrochloride]	–	256×/50	Enhanced Activity in P. aeruginosa (fold enhancement of antibiotic activity / EPI concentration) ([2]; EPI at 25 (μg)): 8×/25
Cn1c(C(=O)NC[C@@H](N)CCCN)nc2cc(-c3ccc(F)cc3)cc(C(F)(F)F)c21 [Example 4, (S)—N-(2,5-diaminopentyl)-5-(4-fluorophenyl)-1-methyl-7-(trifluoromethyl)-1H-benzo[d]imidazole-2-carboxamide Dihydrochloride]	8×/12.5	512×/50	–
C[C@H]1COc2c(N3CCN(C)CC3)c(F)cc3c(=O)c(C(=O)O)cn1c23 [levofloxacin, reference compound]	–	–	MIC (P. aeruginosa ATCC 27853 [5]; ATCC27853, P. aeruginosa ATCC 27853, read-out: MIC of levofloxacin in the absence of EPI): 1 µg/mL
